# Entries after “also recorded” stand apart in the source; their conditions may differ.
# How the values were obtained:
# [1] = system: Human epidermal keratinocyte cells (HaCaT); test: CyQUANT assay, proliferation of HaCaT cells; assay type: cell-based; conditions: after 48 h and 72 h of cultivation, versus control without DMG, FIG. 2
# Experimental: (§1) 1. As part of an in vitro study, the effect of Na-dimethylglycinate was examined in a pH range from […] in a cell culture model with human horn-forming keratinocyte cells. For this purpose, HaCaT cells were cultured for 1, 3, 5, and 7 days in DMEM medium (including fetal calf serum and an antibiotic-antimycotic mix) and, among other things, the viability, proliferation and migration of the cells were determined using suitable measurement methods, and the expression of the growth factors relevant for cell growth was measured.
# A so-called CyQUANT assay was carried out to measure the proliferation. In this fluorescence-based assay, the fluorescent dye used binds to DNA (deoxyribonucleic acid), with the content of cellular DNA being a direct measure of the number of cells in a sample.
# Human epidermal keratinocyte cells (HaCaT) were seeded in a 96-well plate at a cell density of 5,000 cells/well and cultured in medium (DMEM with 10% FBS, 1% penicillin-streptomycin, 0.5% fungizone). The next day and after a further 24 h as well as 48 h and 72 h of cultivation at 37° C. and 5% by volume CO2, the cell culture medium without (control) or with the active ingredient concentrations already present was changed. […]
# Cell proliferation was determined using the CyQUANT assay. The fluorescence was measured in triplicate and normalized to the control at 24 hours. […]
# VEGF = test: Gene expression of VEGF by qRT-PCR in HaCaT cells; assay type: cell-based, human; conditions: after 24 hours of cultivation, normalized to GAPDH, versus control without DMG, FIG. 4
# Experimental: VEGF (Vascular Endothelial Growth Factor) promotes the growth and formation of new blood and lymphatic vessels. Gene expression was measured using a standard method known as quantitative real-time PCR (qRT-PCR).
# Human epidermal keratinocyte cells (HaCaT) were seeded in a 6-well plate at a cell density of 140,000 cells/well and cultured in medium (DMEM with 10% FBS, 1% penicillin-streptomycin, 0.5% fungizone) at 37° C. and 5% by volume CO2. The next day, the cell culture medium without (control) or with the active substance concentrations already present in each case was changed, and the cells were harvested after 24 h. Gene expression was measured using qRT-PCR based on studies previously published in B. V. Diaz, M.-C. Lenoir, A. Ladoux, C. Frelin, M. Demarchez, S. Michel, Journal of Biological Chemistry 2000, 275, 642-650.
# The relative gene expression determined by qRT-PCR (triple determination, normalized to the respective gene expression of a constitutively expressed gene; GAPDH—glyceraldehyde-3-phosphate dehydrogenase) of VEGF is shown. Shown is the mean value with standard deviation.
# HaCaT cells = test: Wound healing assay, cell migration; assay type: cell-based, human; conditions: images after 16 h, 20 h and 24 h, different DMG concentrations, compared to controls without DMG; FIG. 3
# Experimental: as §1
# A so-called wound healing assay was carried out to measure migration, based on previously published studies in T. Kawabata, T. Otsuka, K. Fujita, G. Sakai, R. Matsushima-Nishiwaki, O. Kozawa, H. Tokuda, International Journal of Molecular Medicine 2018, 42, 3149-3156. The principle is based on measuring the migration of cells to a cultivation surface that has not yet been colonized over time. […]
# The wound was created at time 0 h and images were taken after 16 h, 20 h and 24 h of cultivation. Based on the image recordings, the cultivation surface, which was not yet colonized with cells, was determined using the ImageJ software. The measured values are normalized to the point in time 0 h (maximum size of the wound) and given in %.
# [2] = system: Human epidermal keratinocyte cells (HaCaT); test: MTT assay, cell viability of HaCaT cells; assay type: cell-based; conditions: after 48 h and 72 h of cultivation, versus control without DMG, FIG. 1
# Experimental: as §1
# For this measurement, a so-called MTT assay was used to determine cellular metabolic activity as an indicator of cell viability and cytotoxicity. This colorimetric assay is based on the reduction of a yellow tetrazolium salt (3-(4,5-dimethylthiazol-2-yl)-2,5-diphenyltetrazolium bromide or MTT) to purple formazan crystals by metabolically active cells.
# Human epidermal keratinocyte cells (HaCaT) were seeded in a 96-well plate at a cell density of 5,000 cells/well and cultured in medium (DMEM with 10% FBS, 1% penicillin-streptomycin, 0.5% fungizone). […]
# Cell viability was determined using the MTT assay. The absorption was measured in quadruplicate and normalized to the control at 24 hours. […]
smiles,measurement,setting,value
"CN(C)CC(=O)[O-].[Na+] [DMG, sodium dimethylglycinate]","cell proliferation (CyQUANT assay, fluorescence normalized to the control at 24 hours)",[1],clear increase
same,relative gene expression of VEGF,VEGF,significant increase; also recorded: significantly increased
same,migration or wound closure,HaCaT cells,significantly faster
same,"cell viability (MTT assay, absorption normalized to the control at 24 hours)",[2],clear increase
